Literature values as cited in patent publication US7803402B2, “Pharmaceutical preparations” (priority 2002, dated 2010).

Key:
[1] = in vivo
[2] = cefixime in the circulation

Q: What does the source list for `C=CC1=C(C(=O)O)N2C(=O)[C@@H](NC(=O)/C(=N\OCC(=O)O)c3csc(N)n3)[C@H]2SC1` [Cefixime]?
A: solubility in dehydrated alcohol (dehydrated alcohol): sparingly soluble; solubility in ethyl acetate (ethyl acetate): practically insoluble; solubility in methyl alcohol (methyl alcohol): freely soluble; solubility in water (water): slightly soluble; eliminated by nonrenal mechanisms [1]: Up to 60%; placental transfer [1]: crosses the placenta; removal by dialysis [1]: not substantially removed; bound to plasma proteins [2]: About 65%
